Data published in patent US20140127144A1, “Flavour Modifying Compounds” (Givaudan S. A., priority 2011, published 2014).

What was measured:
[1] = Expert panel tasting, application on Bechamel sauce with cheese; type: in vivo, people; conditions: for taste description of mixture B compared to mixture A, effect assigned to the compound: 150-300 ppm N-acetyl-DL-glutamic acid plus 50-200 ppm N-formyl-glycine together in Bechamel sauce with cheese, panel of 5
Protocol: Mixture A: A Bechamel sauce with cheese was prepared by heating up 25 g of wheat flour in 35 g of butter in a saucepan. Let the flour cook shortly. Add 500 g milk, 2.5 g table salt, 0.15 g MSG, 0.075 g nutmeg powder, 0.125 g black pepper and 40 g of cheese powder. Boil the mixture for one minute. Mixture B: The same as mixture A plus 150-300 ppm N-acetyl-DL-glutamic acid plus 50-200 ppm N-formyl-glycine.

[2] = Expert panel tasting in aqueous solution of 0.5% NaCl and 0.03% MSG; type: in vivo, people; conditions: panel of 5
From the text: Mixture C: An aqueous solution of 0.5% NaCl and 0.03% MSG.
Mixture D: The same as C plus 10 ppm N-formyl-DL-phenylalanine.
Mixture C: An aquesous solution of 0.5% NaCL and 0.03% MSG
Mixture D: The same as C plus 50 ppm of N-acetyl-L-isoleucine
Mixture A: An aqueous solution of 0.5% NaCl and 0.03% of MSG.
Mixture B: The same as A plus 25 ppm N-formyl-L-lysine
Mixture C: An aqueous solution of 0.5% NaCl and 0.03% MSG (Mono sodium glutamate)
Mixture D: The same as C plus 75 ppm of N-acetlyl DL-valine

[3] = Expert panel tasting in aqueous solution of 0.5% NaCl; type: in vivo, people; conditions: panel of 5
From the text: Mixture A: An aqueous solution of 0.5% NaCl Mixture B: The same as A plus 10 ppm N-formyl-DL-phenylalanine Mixture A: An aqueous solution of 0.5% NaCl Mixture B: The same as A plus 50 ppm of N-acetyl-L-isoleucine Mixture A: An aqueous solution of 0.5% NaCl Mixture B: The same as A plus 10 ppm N-acetyl-DL-valine

[4] = Panel of experienced tasters, coffee beverage; type: in vivo, people; conditions: 150 ppm in coffee beverage; panel of 8
Protocol: To a coffee beverage (Starbuck's frappucino) was added 150 ppm of N-acetyl glutamic acid. This product was tasted and compared with the original coffee beverage by a panel of experienced tasters consisting of 8 people (5 men, 3 women aged 35-54).

[5] = Panel of experienced tasters, instant mashed potato; type: in vivo, people; conditions: 150 ppm in mashed potato; panel of 8
Protocol: A standard instant mashed potato powder (Albert Heijn huismerk) was prepared and mixed with 150 ppm of N-acetyl glutamic acid. This product was tasted and compared with the original mashed potatoes by a panel of experienced tasters consisting of 8 people (5 men, 3 women aged 35-54).

[6] = Panel of experienced tasters, hamburgers; type: in vivo, people; conditions: 150 ppm in hamburgers, baked; panel of 8
Protocol: Hamburgers were prepared from 80% lean beef and 20% fat beef meat containing 0.5% salt, 0.15% black pepper and 0.15% onion powder and 150 ppm of N-acetyl glutamic acid. The hamburgers were baked without additional fat and compared with the same batch of meat to which no N-acetyl glutamic acid was added. This product was tasted and compared with the original hamburgers by a panel of experienced tasters consisting of 8 people (5 men, 3 women aged 35-54).

[7] = Panel of experienced tasters, cola; type: in vivo, people; conditions: 100 ppm in cola; panel of 8
Protocol: To a standard cola (Pepsi or Coke cola) was added 100 ppm of N-acetyl glutamic acid. This product was tasted and compared with the original colas by a panel of experienced tasters consisting of 8 people (5 men, 3 women aged 35-54).

[8] = Panel of experienced tasters, cream cheese; type: in vivo, people; conditions: 150 ppm in cream cheese; panel of 8
From the text: 150 ppm of N-acetyl glutamic acid was thoroughly mixed into Philadelphia brand cream cheese. This product was tasted and compared with the original cream cheese by a panel of experienced tasters consisting of 8 people (5 men, 3 women aged 35-54).

[9] = Panel of experienced tasters, potato chips with cheese sour cream flavour; type: in vivo, people; conditions: amount not given, panel of 8
Protocol: Potato chips were prepared in house. A cheese sour cream flavour was prepared by mixing salt (1.5 weight % on the chips), MSG (0.05), whey powder (2.5), cheese powder (1.5), cream powder (0.2), buttermilk powder (0.4) and onion powder (0.2) The powder was applied on plain potato chips. This product was tasted and compared with the chips without N—Ac—Glu by a panel of experienced tasters consisting of 8 people (5 men, 3 women aged 35-54).

[10] = Panel of experienced tasters, salad dressing; type: in vivo, people; conditions: 100 ppm in salad dressing; panel of 8
Protocol: 100 ppm of N-acetyl glutamic acid was dissolved in a common salad dressing (Remia met magere yoghurt). This product was tasted and compared with the original salad dressing by a panel of experienced tasters consisting of 8 people (5 men, 3 women aged 35-54).

[11] = Panel of experienced tasters, soy milk; type: in vivo, people; conditions: 100 ppm in soy milk; panel of 8
Protocol: To a standard soy milk (Alpro) was added 100 ppm of N-acetyl glutamic acid. This product was tasted and compared with the original soy milk by a panel of experienced tasters consisting of 8 people (5 men, 3 women aged 35-54).

[12] = Expert panel tasting, application on soy sauce; type: in vivo, people; conditions: for taste description of mixture B compared to mixture A, effect assigned to the compound: 150-300 ppm N-acetyl-DL-glutamic acid plus 50-200 ppm N-formyl-glycine together in 5% soy sauce, panel of 5
From the text: Mixture A: 5% of a standard soy sauce in water, Mixture B: Same as mixture A plus 150-300 ppm N-acetyl-DL-glutamic acid plus 50-200 ppm N-formyl-glycine. […] This effect could be assigned to N-acetyl glutamic acid.

[13] = Panel of experienced tasters, cooking oil; type: in vivo, people; conditions: 200 ppm in cooking oil; panel of 8
Protocol: 200 ppm of N-acetyl glutamic acid was dissolved in a common cooking oil (Becel kitchen). This product was tasted and compared with the original cooking oil by a panel of experienced tasters consisting of 8 people (5 men, 3 women aged 35-54).

[14] = Panel of experienced tasters, vanilla yoghurt; type: in vivo, people; conditions: 100 ppm in vanilla yoghurt; panel of 8
Protocol: To a standard vanilla yoghurt (Campina) was added 100 ppm of N-acetyl glutamic acid. This product was tasted and compared with the original vanilla yoghurt by a panel of experienced tasters consisting of 8 people (5 men, 3 women aged 35-54).

[15] = Panel of experienced tasters, tomato soup; type: in vivo, people; conditions: 100 ppm in tomato soup; panel of 8
Protocol: To a standard tomato soup (Albert Heijn huismerk) was added 100 ppm of N-acetyl glutamic acid. This product was tasted and compared with the original tomato soup by a panel of experienced tasters consisting of 8 people (5 men, 3 women aged 35-54).

[16] = Expert panel tasting in chicken broth; type: in vivo, people; conditions: 100 ppm in chicken broth; panel of 5
From the text: Mixture A: A chicken broth Mixture B: The same as A plus 100 ppm of N-acetyl-L-tyrosine

[17] = Expert tasters, beef bouillon tasted warm; type: in vivo; conditions: 40 ppb in beef bouillon
From the text: Mixture C: commercially available beef bouillon Mixture D: same as Mixture C plus 40 ppb N-acetyl-methionine The soups were tasted warm by a group of expert tasters.

[18] = Expert panel tasting in salt reduced soy sauce; type: in vivo; conditions: 0.04 ppm in salt reduced soy sauce
From the text: Mixture A: salt reduced Kikkoman soy sauce containing 9% salt Mixture B: same as Mixture A plus 0.04 ppm N-acetyl-methionine

[19] = Expert panel tasting in aqueous solution of 0.5% NaCl, 0.03% MSG and 0.002% ribonucleotides; type: in vivo; conditions: 50 ppm in 0.5% NaCl, panel of 5
From the text: Mixture A: An aqueous solution of 0.5% NaCl, 0.03% MSG and 0.002%
Ribonucleotides GMP:IMP, ratio 1:1)
Mixture B: The same as A plus50 ppm of N-hexanoyl-L-leucine
Mixture A: An aqueous solution of 0.5% NACl, 0.03% MSG and 0.002%
Ribonucleotides (1:1 GMP, IMP)
Mixture B: The same as A plus 50 ppm of N-pentanoyl-L-phenylalanine

## CC(=O)NC(CCC(=O)O)C(=O)O (racemic) [N-acetyl-DL-glutamic acid]
[1]; only 150-300 ppm N-acetyl-DL-glutamic acid on top of mixture A
  taste description compared to mixture A: more fullness, depth and aftertaste of cheese

## CC(=O)NC(C(=O)O)C(C)C (racemic) [N-acetyl-DL-valine]
[2]; 75 ppm in 0.5% NaCl and 0.03% MSG
  taste description of mixture D compared to mixture C: more lingering umami and salivating
[3]; 10 ppm in 0.5% NaCl
  taste description of mixture B compared to mixture A: more initially salty

## O=CNC(Cc1ccccc1)C(=O)O (racemic) [N-formyl-DL-phenylalanine]
[2]; 10 ppm in 0.5% NaCl and 0.03% MSG
  taste description of mixture D compared to mixture C: more umami
[3]; 10 ppm in 0.5% NaCl
  taste description of mixture B compared to mixture A: more salty

## CC(=O)N[C@@H](CCC(=O)O)C(=O)O [N-acetyl glutamic acid]
[4]
  taste description compared with the original product: slightly more bitter, had reduced metallic retort notes and had increased carmellic notes
[5]
  taste description compared with the original product: more salty, more creamy and more full
[6]
  taste description compared with the original product: more meaty, more succulent, more juicy, more fatty and more expanding in the mouth
[7]
  taste description compared with the original product: slightly less acidic, more syrupy and more smooth
[8]
  taste description compared with the original product: saltier, creamier, more umami, more body, lingering and mouth-coating
[9]
  taste description compared with the chips without N-Ac-Glu: more salty, more creamy, gave more mouthwatering and had increased cheese intensity
[10]
  taste description compared with the original product: more balanced, less sour, fuller, salivating and more lingering
[11]
  taste description compared with the original product: slightly more sweet and masked some of the soy off-notes
[12]
  taste description of mixture B compared to mixture A, effect assigned to the compound: more umami and more lingering savoury
[13]
  taste description compared with the original product: more fatty, more creamy, more mouthcoating and gave a better buttery aftertaste
[14]
  taste description compared with the original product: less sour, more intense vanilla, more creamy, lingering and had more body
[1]
  taste description of mixture B compared to mixture A, effect assigned to the compound: more lingering, and giving fullness, depth and aftertaste of dairy cheese products
[15]
  taste description compared with the original product: less sour, had more body, was more salivating and had a stronger cooked taste

## CC(=O)N[C@@H](CCC(=O)O)C(=O)O [N-acetyl-L-glutamic acid]
[12]; only 50 -300 ppm N-acetyl-L-glutamic acid on top of mixture A
  taste description compared to mixture A: more umami and more lingering savoury

## CC[C@H](C)[C@H](NC(C)=O)C(=O)O [N-acetyl-L-isoleucine]
[2]; 50 ppm in 0.5% NaCl and 0.03% MSG
  taste description of mixture D compared to mixture C: more umami
[3]; 50 ppm in 0.5% NaCl
  taste description of mixture B compared to mixture A: more salty

## CC(=O)N[C@@H](Cc1ccc(O)cc1)C(=O)O [N-acetyl-L-tyrosine]
[16]
  taste description of mixture B compared to mixture A: more salty, lingering umami and shows delayed numbing

## CSCCC(NC(C)=O)C(=O)O (stereo not shown) [N-acetyl-methionine, N-acetyl-methionine (2-acetamido-4-(methylthio)butanoic acid)]
[17]
  taste description of mixture D compared to mixture C: more salty, longer lasting and lifts the garlic component
[18]
  taste description of mixture B compared to mixture A: more salty and has more upfront salty taste

## O=CNCC(=O)O [N-formyl glycine]
[12]
  taste description of mixture B compared to mixture A, effect assigned to the compound: stronger initial salt spike, was more long-lasting, complex and more succulent
[12]; only 50-200 ppm N-formyl-glycine on top of mixture A
  taste description compared to pure mixture A: more salty, more complex, long lasting and succulent
[1]
  taste description of mixture B compared to mixture A, effect assigned to the compound: stronger initial bite, is more salty and more complex
[1]; only 50-200 ppm N-formyl glycine on top of mixture A
  taste description compared to pure mixture A: more bite, more complex note and saltiness

## NCCCCC(NC=O)C(=O)O [N-formyl-L-lysine, alpha-N-formyl-L-lysine]
[2]; 25 ppm in 0.5% NaCl and 0.03% MSG
  taste description of mixture B compared to mixture A: more umami

## CCCCCC(=O)N[C@@H](CC(C)C)C(=O)O [N-hexanoyl-L-leucine]
[19]
  taste description of mixture B compared to mixture A: more salty and umami

## CCCCC(=O)N[C@@H](Cc1ccccc1)C(=O)O [N-pentanoyl-L-phenylalanine]
[19]
  taste description of mixture B compared to mixture A: more salty and umami
